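At the GI50, growth is halved. TGI denotes the concentration required for complete inhibition of growth.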
How the values were obtained:
Assay in all cases: NCI tumour cell line growth inhibition, 384-well format
HL-60(TB) leukemia = system: HL-60(TB) leukemia
MDA-MB-468 breast = system: MDA-MB-468 breast
PC-3 prostate = system: PC-3 prostate
A549 NSCLC = system: A549 NSCLC
SF-539 CNS = system: SF-539 CNS
OVCAR-8 ovarian = system: OVCAR-8 ovarian
SF-295 CNS = system: SF-295 CNS
SK-MEL-28 melanoma = system: SK-MEL-28 melanoma
MCF7 breast = system: MCF7 breast
OVCAR-5 ovarian = system: OVCAR-5 ovarian
SNB-19 CNS = system: SNB-19 CNS
ACHN renal = system: ACHN renal
RPMI-8226 leukemia = system: RPMI-8226 leukemia

`CS(=O)(=O)CCNCc1ccc(-c2ccc3ncnc(Nc4ccc(OCc5cccc(F)c5)c(Cl)c4)c3c2)o1` was tested, and the GI50 (HL-60(TB) leukemia) was 2260 nM, the TGI (HL-60(TB) leukemia) was 3730 nM and the GI50 (MDA-MB-468 breast) was 45.2 nM. The TGI (MDA-MB-468 breast) was 260 nM, the GI50 (PC-3 prostate) was 1750 nM and the TGI (PC-3 prostate) was 3280 nM. The GI50 (A549 NSCLC) was 1360 nM, the TGI (A549 NSCLC) was 2690 nM and the GI50 (SF-539 CNS) was 1820 nM. It also gave a TGI (SF-539 CNS) of 3220 nM, a GI50 (OVCAR-8 ovarian) of 1720 nM and a TGI (OVCAR-8 ovarian) of 3730 nM. It also gave a GI50 (SF-295 CNS) of 1960 nM, a TGI (SF-295 CNS) of 3850 nM and a GI50 (SK-MEL-28 melanoma) of 1800 nM. It also gave a TGI (SK-MEL-28 melanoma) of 3210 nM, a GI50 (MCF7 breast) of 1670 nM and a TGI (MCF7 breast) of 3060 nM. For the same compound, the GI50 (OVCAR-5 ovarian) was 2740 nM, the TGI (OVCAR-5 ovarian) was 7500 nM and the GI50 (SNB-19 CNS) was 4430 nM. It also gave a TGI (SNB-19 CNS) of 9080 nM, a GI50 (ACHN renal) of 398 nM and a TGI (ACHN renal) of 8090 nM. The GI50 (RPMI-8226 leukemia) was 1850 nM and the TGI (RPMI-8226 leukemia) was 3250 nM.
